Values quoted from earlier work as cited in patent EP4635967A1, “OLIGONUCLEOTIDE COMPRISING LIPOPHILIC MONOMER AND USE THEREOF IN NON-LIVER DELIVERY” (Tuojie Biotech (Shanghai) Co., Ltd., priority 2022, dated 2024).

Settings: octanol-water partition coefficient, example values in the definition of lipophilic moiety

Row | logKow | Structure (SMILES)
1 | about 0.7 | NCCCCCCO [6-aminohexanol]
2 | 10.7 | CC(C)CCC[C@@H](C)[C@H]1CC[C@H]2[C@@H]3CC=C4C[C@@H](OC(=O)NCCCCCCO)CC[C@]4(C)[C@H]3CC[C@]12C [cholesteryl N-(hexan-6-ol)carbamate]
